Values of other authors as cited in patent US20050245613A1, “Use of gaba-b receptor positive modulators in gastro-intestinal disorders” (priority 2002, published 2005).

Columns and labels:
[1] = test system: dogs
[2] = test system: GERD patients; details: long-term recording of esophageal pH
[3] = test system: vagal afferent and efferent fibers
[4] = test system: healthy subjects
[5] = test system: ferrets
[6] = test system: GERD patients

## NCC(CC(=O)O)c1ccc(Cl)cc1 (stereo not drawn) [Baclofen]
[1]
  frequency of TLESR: reduces the frequency of TLESR
[2]
  esophageal acid exposure: significant reduction in esophageal acid exposure
[3]
  sensitivity of vagal afferent and efferent fibers: reduce the sensitivity of vagal afferent and efferent fibers
[4]
  frequency of TLESR: reduces the frequency of TLESR
[5]
  frequency of TLESR: reduces the frequency of TLESR
[6]
  frequency of TLESR: reduces the frequency of TLESR
